Tests used:
Test in all cases: In vitro cell proliferation assay (CellTiter-Glo)
Assay type in all cases: cell-based
MDA-MB-468 = conditions: Homo sapiens, MDA-MB-468 cells, 72 h treatment, read-out: Cell Line IC50 MDA-MB-468
Protocol: (§1) Human cancer cell lines were seeded in white 384 well-plates (1250 cells/well) in complete medium (RPM11640 or E-MEM plus 10% Fetal bovine serum) and treated with compounds dissolved in 0.1% DMSO, 24 h after seeding. The cells were incubated at 37° C. and 5% CO2 and after 72 h the plates were processed using CellTiter-Glo assay (Promega) following the manufacturer's instruction.
(§2) CellTiter-Glo is a homogenous method based on the quantification of the ATP present, an indicator of metabolically active cells. ATP is quantified using a system based on luciferase and D-luciferin resulting into light generation.
(§3) Briefly, 25 μL/well of reagent solution are added to each well and, after 5 minutes shaking, microplates are read by a luminometer. The luminescent signal is proportional to the number of live cells present in culture.
(§4) Dose-response curves were generated by sigmoid function interpolation of 8 concentration points and the antiproliferative activity of compounds was reported as the half-maximal inhibitory concentration (IC50).

A2780 = conditions: Homo sapiens, A2780 cells, 72 h treatment, read-out: Cell Line IC50 A2780
Protocol: as §1, §2, §3, §4

MDA-MB_213 = conditions: Homo sapiens, MDA-MB_213 cells, 72 h treatment, read-out: Cell Line IC50 MDA-MB_213
Protocol: as §1, §2, §3, §4

MCF7 = conditions: Homo sapiens, MCF7 cells, 72 h treatment, read-out: Cell Line IC50 MCF7
Protocol: as §1, §2, §3, §4

HELA = conditions: Homo sapiens, HELA cells, 72 h treatment, read-out: Cell Line IC50 HELA
Protocol: as §1, §2, §3, §4

HCT-116 = conditions: Homo sapiens, HCT-116 cells, 72 h treatment, read-out: Cell Line IC50 HCT-116
Protocol: as §1, §2, §3, §4

HCC1954 = conditions: Homo sapiens, HCC1954 cells, 72 h treatment, read-out: Cell Line IC50 HCC1954
Protocol: as §1, §2, §3, §4

Structure (SMILES) | IC50 (MDA-MB-468) [nM] | IC50 (A2780) [nM] | IC50 (MDA-MB_213) [nM] | IC50 (MCF7) [nM] | IC50 (HELA) [nM] | IC50 (HCT-116) [nM] | IC50 (HCC1954) [nM]
CO[C@H]1OCCN2[C@@H]1O[C@@H]1[C@H](C)O[C@@H](O[C@H]3C[C@](O)(C(C)=O)Cc4c(O)c5c(c(O)c43)C(=O)c3c(F)cccc3C5=O)C[C@@H]12 [Comp. 21, (8S,10S)-8-acetyl-1-fluoro-6,8,11-trihydroxy-10-{[(1S,3R,4aS,9aR,10aS)-9-methoxy-1-methyloctahydro-1H-pyrano[4′,3′:4,5][1,3]oxazolo[2,3-c][1,4]oxazin-3-yl]oxy}-7,8,9,10-tetrahydrotetracene-5,12-dione] | 0.072 | 0.032 | 0.306 | 3.52 | 0.349 | 0.146 | 0.377
CO[C@H]1OCCN2[C@@H]1O[C@@H]1[C@H](C)O[C@@H](O[C@H]3C[C@](O)(C(C)=O)Cc4c(O)c5c(c(O)c43)C(=O)c3c(N)cccc3C5=O)C[C@@H]12 [Comp. 22, (8S,10S)-8-acetyl-1-amino-6,8,11-trihydroxy-10-{[(1S,3R,4aS,9S,9aR,10aS)-9-methoxy-1-methyloctahydro-1H-pyrano[4′,3′:4,5][1,3]oxazolo[2,3-c][1,4]oxazin-3-yl]oxy}-7,8,9,10-tetrahydrotetracene-5,12-dione] | 0.313 | 0.044 | 0.538 | 0.668 | 0.7 | 0.2 | 0.549
CO[C@H]1OCCN2[C@@H]1O[C@@H]1[C@H](C)OC(O[C@H]3C[C@](O)(C(C)=O)Cc4c(O)c5c(c(O)c43)C(=O)c3c(NC(=O)[C@H](C)N)cccc3C5=O)C[C@@H]12 (some centres unmarked) [Comp. 26] | 2.3 | 1.2 |  | 3.8 | 3.5 | 1.1 | 4.8
